# Data taken from ChEMBL document CHEMBL5303573, “Mapping human microbiome drug metabolism by gut bacteria and their genes” (Nature, 2019).
# Key:
# [1] = The drug is tested on Bacteroides ovatus strain: ATCC8483 for biotransformation. The drug concentrations were measured before and after a 12-h incubation by liquid-chromatography-coupled mass spectrometry (LC–MS); conditions: 2 µM
# [2] = The drug is tested on Dorea formicigenerans strain: ATCC27755 for biotransformation. The drug concentrations were measured before and after a 12-h incubation by liquid-chromatography-coupled mass spectrometry (LC–MS); conditions: 2 µM
# [3] = The drug is tested on Blautia hansenii strain: DSM20583 for biotransformation. The drug concentrations were measured before and after a 12-h incubation by liquid-chromatography-coupled mass spectrometry (LC–MS); conditions: 2 µM
# [4] = bacteroides stercoris, 12 h, 2 µM
# Description: The drug is tested on Bacteroides stercoris strain: ATCC43183 for biotransformation. The drug concentrations were measured before and after a 12-h incubation by liquid-chromatography-coupled mass spectrometry (LC–MS)
# [5] = parabacteroides johnsonii, 12 h, 2 µM
# Description: The drug is tested on Parabacteroides johnsonii strain: DSM18315 for biotransformation. The drug concentrations were measured before and after a 12-h incubation by liquid-chromatography-coupled mass spectrometry (LC–MS)
# [6] = The drug is tested on Odoribacter splanchnicus strain: fecal isolate for biotransformation. The drug concentrations were measured before and after a 12-h incubation by liquid-chromatography-coupled mass spectrometry (LC–MS); conditions: 2 µM
# [7] = The drug is tested on Bacteroides finegoldii strain: DSM17565 for biotransformation. The drug concentrations were measured before and after a 12-h incubation by liquid-chromatography-coupled mass spectrometry (LC–MS); conditions: 2 µM
# [8] = The drug is tested on Ruminococcus gnavus strain: ATCC29149 for biotransformation. The drug concentrations were measured before and after a 12-h incubation by liquid-chromatography-coupled mass spectrometry (LC–MS); conditions: mediterraneibacter gnavus, 2 µM
# [9] = The drug is tested on Enterococcus faecalis strain: V583 for biotransformation. The drug concentrations were measured before and after a 12-h incubation by liquid-chromatography-coupled mass spectrometry (LC–MS); conditions: 2 µM
# [10] = The drug is tested on Bacteroides sp. WH2 strain: WH2 for biotransformation. The drug concentrations were measured before and after a 12-h incubation by liquid-chromatography-coupled mass spectrometry (LC–MS); conditions: bacteroides sp. wh2, 12 h, 2 µM
# [11] = limosilactobacillus reuteri cf48-3a, 12 h, 2 µM
# Description: The drug is tested on Lactobacillus reuteri CF48-3A strain: BEI HM-102 for biotransformation. The drug concentrations were measured before and after a 12-h incubation by liquid-chromatography-coupled mass spectrometry (LC–MS)
# [12] = The drug is tested on Collinsella aerofaciens strain: ATCC25986 for biotransformation. The drug concentrations were measured before and after a 12-h incubation by liquid-chromatography-coupled mass spectrometry (LC–MS); conditions: 2 µM
# [13] = The drug is tested on Edwardsiella tarda strain: ATCC23685 for biotransformation. The drug concentrations were measured before and after a 12-h incubation by liquid-chromatography-coupled mass spectrometry (LC–MS); conditions: 2 µM
# [14] = The drug is tested on Bacteroides vulgatus strain: ATCC8482 for biotransformation. The drug concentrations were measured before and after a 12-h incubation by liquid-chromatography-coupled mass spectrometry (LC–MS); conditions: phocaeicola vulgatus, 2 µM
# [15] = The drug is tested on Clostridium scindens strain: ATCC35704 for biotransformation. The drug concentrations were measured before and after a 12-h incubation by liquid-chromatography-coupled mass spectrometry (LC–MS); conditions: 2 µM
# [16] = The drug is tested on Bacteroides caccae strain: ATCC43185 for biotransformation. The drug concentrations were measured before and after a 12-h incubation by liquid-chromatography-coupled mass spectrometry (LC–MS); conditions: 2 µM
# [17] = bacteroides thetaiotaomicron, 12 h, 2 µM
# Description: The drug is tested on Bacteroides thetaiotaomicron strain: VPI-5482 for biotransformation. The drug concentrations were measured before and after a 12-h incubation by liquid-chromatography-coupled mass spectrometry (LC–MS)
# [18] = bacteroides fragilis, 12 h, 2 µM
# Description: The drug is tested on Bacteroides fragilis strain: DS-208 for biotransformation. The drug concentrations were measured before and after a 12-h incubation by liquid-chromatography-coupled mass spectrometry (LC–MS)
# [19] = The drug is tested on Bifidobacterium breve strain: DSM20213 for biotransformation. The drug concentrations were measured before and after a 12-h incubation by liquid-chromatography-coupled mass spectrometry (LC–MS); conditions: 2 µM
# [20] = bacteroides thetaiotaomicron, 12 h, 2 µM; remark: listed apart in the source
# Description: The drug is tested on Bacteroides thetaiotaomicron strain: 7330 for biotransformation. The drug concentrations were measured before and after a 12-h incubation by liquid-chromatography-coupled mass spectrometry (LC–MS)
Structure (SMILES),Bacterial Biotransformation [1],Bacterial Biotransformation [2],Bacterial Biotransformation [3],Bacterial Biotransformation [4],Bacterial Biotransformation [5],Bacterial Biotransformation [6],Bacterial Biotransformation [7],Bacterial Biotransformation [8],Bacterial Biotransformation [9],Bacterial Biotransformation [10],Bacterial Biotransformation [11],Bacterial Biotransformation [12],Bacterial Biotransformation [13],Bacterial Biotransformation [14],Bacterial Biotransformation [15],Bacterial Biotransformation [16],Bacterial Biotransformation [17],Bacterial Biotransformation [18],Bacterial Biotransformation [19],Bacterial Biotransformation [20]
CN(CCOc1ccc(CC2SC(=O)NC2=O)cc1)c1ccccn1.O=C(O)/C=C\C(=O)O (stereo not given) [ROSIGLITAZONE MALEATE],Compound NOT metabolized,Compound NOT metabolized,Compound NOT metabolized,Compound NOT metabolized,Compound NOT metabolized,Compound NOT metabolized,Compound NOT metabolized,Compound NOT metabolized,Compound NOT metabolized,Compound NOT metabolized,Compound NOT metabolized,Compound NOT metabolized,Compound NOT metabolized,Compound NOT metabolized,Compound NOT metabolized,Compound NOT metabolized,Compound NOT metabolized,Compound NOT metabolized,Compound NOT metabolized,Compound NOT metabolized
CCCCCNC(=N)N/N=C/c1c[nH]c2ccc(OC)cc12.O=C(O)/C=C\C(=O)O [TEGASEROD MALEATE],Compound NOT metabolized,Compound NOT metabolized,Compound NOT metabolized,Compound NOT metabolized,Compound NOT metabolized,Compound NOT metabolized,Compound NOT metabolized,Compound NOT metabolized,Compound NOT metabolized,Compound NOT metabolized,Compound NOT metabolized,Compound NOT metabolized,Compound NOT metabolized,Compound NOT metabolized,Compound NOT metabolized,Compound NOT metabolized,Compound NOT metabolized,Compound NOT metabolized,Compound NOT metabolized,Compound NOT metabolized

# Continued, values first:
Bacterial Biotransformation [1],Bacterial Biotransformation [2],Bacterial Biotransformation [3],Bacterial Biotransformation [4],Bacterial Biotransformation [5],Bacterial Biotransformation [6],Bacterial Biotransformation [7],Bacterial Biotransformation [8],Bacterial Biotransformation [9],Bacterial Biotransformation [10],Bacterial Biotransformation [11],Bacterial Biotransformation [12],Bacterial Biotransformation [13],Bacterial Biotransformation [14],Bacterial Biotransformation [15],Bacterial Biotransformation [16],Bacterial Biotransformation [17],Bacterial Biotransformation [18],Bacterial Biotransformation [19],Bacterial Biotransformation [20],Structure (SMILES)
Compound metabolized,Compound NOT metabolized,Compound NOT metabolized,Compound NOT metabolized,Compound NOT metabolized,Compound NOT metabolized,Compound NOT metabolized,Compound NOT metabolized,Compound NOT metabolized,Compound NOT metabolized,Compound NOT metabolized,Compound NOT metabolized,Compound NOT metabolized,Compound NOT metabolized,Compound NOT metabolized,Compound NOT metabolized,Compound metabolized,Compound metabolized,Compound NOT metabolized,Compound metabolized,CC(C)NCC(O)c1ccc(NS(C)(=O)=O)cc1 (stereo not given) [SOTALOL]
Compound NOT metabolized,Compound NOT metabolized,Compound NOT metabolized,Compound NOT metabolized,Compound NOT metabolized,Compound NOT metabolized,Compound NOT metabolized,Compound NOT metabolized,Compound NOT metabolized,Compound NOT metabolized,Compound NOT metabolized,Compound NOT metabolized,Compound NOT metabolized,Compound NOT metabolized,Compound NOT metabolized,Compound NOT metabolized,Compound NOT metabolized,Compound NOT metabolized,Compound NOT metabolized,Compound NOT metabolized,CCOc1ccccc1OCCN[C@H](C)Cc1ccc(OC)c(S(N)(=O)=O)c1.Cl [TAMSULOSIN HYDROCHLORIDE]
Compound NOT metabolized,Compound NOT metabolized,Compound NOT metabolized,Compound NOT metabolized,Compound NOT metabolized,Compound NOT metabolized,Compound NOT metabolized,Compound NOT metabolized,Compound NOT metabolized,Compound NOT metabolized,Compound NOT metabolized,Compound NOT metabolized,Compound NOT metabolized,Compound NOT metabolized,Compound NOT metabolized,Compound NOT metabolized,Compound NOT metabolized,Compound NOT metabolized,Compound NOT metabolized,Compound NOT metabolized,CN(C/C=C/C#CC(C)(C)C)Cc1cccc2ccccc12 [TERBINAFINE]
